Assay results: ChEMBL document CHEMBL1201862, “PubChem BioAssay data set” (2004)
Calls of active or inactive are those of the source.

Key:
[1] = target: T1, High affinity choline transporter 1 (Homo sapiens, UniProt Q9GZV3); test: human choline transporter blockers, potency – cell-based, 5-point CRC, membrane potential dye, dose response (AID 504840); type: functional
T1 sequence (Q9GZV3 whole entry): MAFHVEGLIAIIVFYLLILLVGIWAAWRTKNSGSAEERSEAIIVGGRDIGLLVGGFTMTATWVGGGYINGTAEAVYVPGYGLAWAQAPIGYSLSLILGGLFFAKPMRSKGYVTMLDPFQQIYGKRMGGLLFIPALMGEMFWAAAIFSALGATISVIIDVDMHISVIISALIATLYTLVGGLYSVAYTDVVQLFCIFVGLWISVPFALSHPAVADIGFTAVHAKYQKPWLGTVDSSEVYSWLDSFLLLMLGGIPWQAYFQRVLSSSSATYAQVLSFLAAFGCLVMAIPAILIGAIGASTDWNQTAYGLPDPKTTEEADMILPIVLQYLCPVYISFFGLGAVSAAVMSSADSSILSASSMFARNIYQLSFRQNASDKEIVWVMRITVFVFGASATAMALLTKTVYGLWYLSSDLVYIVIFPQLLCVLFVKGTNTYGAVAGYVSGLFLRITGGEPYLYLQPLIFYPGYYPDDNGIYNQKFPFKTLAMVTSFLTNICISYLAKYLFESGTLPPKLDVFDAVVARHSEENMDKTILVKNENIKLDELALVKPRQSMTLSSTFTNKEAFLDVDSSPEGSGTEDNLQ

Cytochrome P450 2C19 = Cytochrome P450 2C19 (Homo sapiens, UniProt P33261); test: Cytochrome panel assay with activity outcomes. Panel member name: p450-cyp2c19 Compounds with AC50 equal or less than 10 uM are considered active; type: functional
Cytochrome P450 2C19, sequence (P33261 whole entry): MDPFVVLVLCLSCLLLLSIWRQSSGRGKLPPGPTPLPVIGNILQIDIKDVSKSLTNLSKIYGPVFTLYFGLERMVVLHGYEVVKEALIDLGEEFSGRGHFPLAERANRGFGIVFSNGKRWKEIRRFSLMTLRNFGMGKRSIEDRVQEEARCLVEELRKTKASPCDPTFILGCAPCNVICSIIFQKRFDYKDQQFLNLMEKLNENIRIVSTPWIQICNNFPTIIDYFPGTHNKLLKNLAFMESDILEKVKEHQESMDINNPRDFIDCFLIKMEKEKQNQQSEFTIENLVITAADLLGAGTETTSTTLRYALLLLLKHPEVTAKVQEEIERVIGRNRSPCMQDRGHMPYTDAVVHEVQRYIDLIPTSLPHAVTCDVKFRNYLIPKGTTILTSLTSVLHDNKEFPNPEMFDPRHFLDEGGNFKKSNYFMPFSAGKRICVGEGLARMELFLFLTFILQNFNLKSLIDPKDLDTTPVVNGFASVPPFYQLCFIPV

[2] = Luminescence Cell-Based Dose Retest to Confirm Inhibitors of Cancer Stem Cells. [Related pubchem assays (depositor defined):AID2717, AID2721]; type: functional; settings: Homo sapiens
[3] = viability loss of HMLE_sh_eGFP cells – cell-based, luminescence, counter-screen for HMLE_sh_ECad selective toxicity project, dose response (AID 463074); type: functional, Homo sapiens;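 note: HMLE human mammary epithelial cells expressing control shRNA against eGFP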
[4] = target: 5-hydroxytryptamine receptor 5A (Homo sapiens, UniProt P47898); test: Counterscreen for agonists of OPRM1-OPRD1 heterodimerization: luminescence-based cell-based high throughput dose response assay to identify agonists of 5-hydroxytryptamine (serotonin) 5A receptor (HTR5A). [Related pubchem assays (depositor defined):AID504326, AID504355, AID504692, AID504904, AID504905]; type: functional
5-hydroxytryptamine receptor 5A, sequence (P47898 whole entry): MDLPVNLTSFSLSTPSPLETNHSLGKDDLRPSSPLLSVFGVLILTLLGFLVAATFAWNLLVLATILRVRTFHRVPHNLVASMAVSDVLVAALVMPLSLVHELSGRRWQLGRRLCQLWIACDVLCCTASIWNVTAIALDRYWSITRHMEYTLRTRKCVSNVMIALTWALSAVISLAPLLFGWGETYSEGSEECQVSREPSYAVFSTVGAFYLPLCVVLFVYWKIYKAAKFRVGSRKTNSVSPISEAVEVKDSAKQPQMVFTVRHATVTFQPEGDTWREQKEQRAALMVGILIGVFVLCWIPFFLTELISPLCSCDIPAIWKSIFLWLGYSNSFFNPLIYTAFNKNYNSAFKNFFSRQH

Cytochrome P450 1A2 = target: T2, Cytochrome P450 1A2 (Homo sapiens, UniProt P05177);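 note: PubChem cytochrome P450 panel assay, CYP1A2 panel member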
T2 sequence (P05177 whole entry): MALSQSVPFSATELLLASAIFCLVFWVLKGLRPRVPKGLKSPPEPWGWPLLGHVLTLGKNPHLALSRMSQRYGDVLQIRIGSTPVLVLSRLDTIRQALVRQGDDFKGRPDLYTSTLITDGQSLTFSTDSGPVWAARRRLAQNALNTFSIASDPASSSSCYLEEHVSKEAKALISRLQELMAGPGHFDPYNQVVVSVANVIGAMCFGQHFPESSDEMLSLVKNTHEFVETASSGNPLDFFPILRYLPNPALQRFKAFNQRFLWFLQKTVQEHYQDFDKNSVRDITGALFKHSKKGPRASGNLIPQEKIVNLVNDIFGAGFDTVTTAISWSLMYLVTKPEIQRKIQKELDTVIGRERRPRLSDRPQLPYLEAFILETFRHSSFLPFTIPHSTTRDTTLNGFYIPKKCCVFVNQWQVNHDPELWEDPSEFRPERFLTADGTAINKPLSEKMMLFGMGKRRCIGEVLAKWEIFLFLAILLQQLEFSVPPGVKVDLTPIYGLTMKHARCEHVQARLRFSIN

[5] = target: Delta-type opioid receptor (Homo sapiens, UniProt P41143); test: Counterscreen for agonists of heterodimerization of the mu 1 (OPRM1) and delta 1 (OPRD1) opioid receptors: Luminescence-based cell-based high throughput dose response assay to identify agonists of OPRD1 homodimerization. [Related pubchem assays (depositor defined):AID504326, AID504355, AID504692, AID504904, AID504905]; type: functional
Delta-type opioid receptor, sequence (P41143 whole entry): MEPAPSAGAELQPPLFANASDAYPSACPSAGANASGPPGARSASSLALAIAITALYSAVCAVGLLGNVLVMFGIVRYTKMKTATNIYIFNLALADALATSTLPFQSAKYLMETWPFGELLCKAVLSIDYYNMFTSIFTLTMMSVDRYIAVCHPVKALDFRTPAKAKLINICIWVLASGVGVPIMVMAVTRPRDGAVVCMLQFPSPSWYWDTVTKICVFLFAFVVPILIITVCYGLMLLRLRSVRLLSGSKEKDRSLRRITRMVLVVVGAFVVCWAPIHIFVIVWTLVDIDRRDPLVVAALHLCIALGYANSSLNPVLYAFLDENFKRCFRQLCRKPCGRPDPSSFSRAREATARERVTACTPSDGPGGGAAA

Mu-type opioid receptor = Mu-type opioid receptor (Homo sapiens, UniProt P35372); test: Counterscreen for agonists of heterodimerization of the mu 1 (OPRM1) and delta 1 (OPRD1) opioid receptors: Luminescence-based cell-based high throughput dose response assay to identify agonists of OPRM1 homodimerization.; type: functional;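 note: U2OS cells expressing OPRM1 and beta-arrestin as split beta-galactosidase partners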
Mu-type opioid receptor, sequence (P35372 whole entry): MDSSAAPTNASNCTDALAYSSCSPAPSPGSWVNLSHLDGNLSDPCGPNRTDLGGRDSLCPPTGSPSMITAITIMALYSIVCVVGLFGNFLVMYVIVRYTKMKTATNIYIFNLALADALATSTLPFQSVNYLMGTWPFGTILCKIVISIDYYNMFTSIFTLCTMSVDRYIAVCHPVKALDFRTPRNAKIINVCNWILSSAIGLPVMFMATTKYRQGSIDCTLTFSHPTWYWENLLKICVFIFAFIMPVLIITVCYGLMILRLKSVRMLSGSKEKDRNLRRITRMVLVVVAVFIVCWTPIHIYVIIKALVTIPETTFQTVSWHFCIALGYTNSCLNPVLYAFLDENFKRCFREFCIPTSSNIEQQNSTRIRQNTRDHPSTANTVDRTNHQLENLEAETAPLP

Cytochrome P450 2C9 = Cytochrome P450 2C9 (Homo sapiens, UniProt P11712)
Cytochrome P450 2C9, sequence (P11712 whole entry): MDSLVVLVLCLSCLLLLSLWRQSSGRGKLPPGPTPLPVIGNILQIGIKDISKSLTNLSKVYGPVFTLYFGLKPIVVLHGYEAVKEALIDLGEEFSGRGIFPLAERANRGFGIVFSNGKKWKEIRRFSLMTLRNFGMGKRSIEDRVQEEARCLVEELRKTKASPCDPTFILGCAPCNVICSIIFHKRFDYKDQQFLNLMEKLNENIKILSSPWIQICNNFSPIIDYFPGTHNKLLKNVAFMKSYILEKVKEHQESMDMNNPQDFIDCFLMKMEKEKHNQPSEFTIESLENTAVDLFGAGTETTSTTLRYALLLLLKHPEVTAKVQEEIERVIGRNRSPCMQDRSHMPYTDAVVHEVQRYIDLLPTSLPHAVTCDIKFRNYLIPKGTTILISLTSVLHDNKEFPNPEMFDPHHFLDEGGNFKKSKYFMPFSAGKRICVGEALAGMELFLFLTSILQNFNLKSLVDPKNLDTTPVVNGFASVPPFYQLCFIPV

[6] = target: T3, Rac GTPase-activating protein 1 (Homo sapiens, UniProt Q9H0H5); test: blockers of MgcRacGAP-driven Rac1 GTP hydrolysis – biochemical, ADP Hunter fluorescence, primary and confirmatory, confirmation (AID 624330); type: functional
T3 sequence (Q9H0H5 whole entry): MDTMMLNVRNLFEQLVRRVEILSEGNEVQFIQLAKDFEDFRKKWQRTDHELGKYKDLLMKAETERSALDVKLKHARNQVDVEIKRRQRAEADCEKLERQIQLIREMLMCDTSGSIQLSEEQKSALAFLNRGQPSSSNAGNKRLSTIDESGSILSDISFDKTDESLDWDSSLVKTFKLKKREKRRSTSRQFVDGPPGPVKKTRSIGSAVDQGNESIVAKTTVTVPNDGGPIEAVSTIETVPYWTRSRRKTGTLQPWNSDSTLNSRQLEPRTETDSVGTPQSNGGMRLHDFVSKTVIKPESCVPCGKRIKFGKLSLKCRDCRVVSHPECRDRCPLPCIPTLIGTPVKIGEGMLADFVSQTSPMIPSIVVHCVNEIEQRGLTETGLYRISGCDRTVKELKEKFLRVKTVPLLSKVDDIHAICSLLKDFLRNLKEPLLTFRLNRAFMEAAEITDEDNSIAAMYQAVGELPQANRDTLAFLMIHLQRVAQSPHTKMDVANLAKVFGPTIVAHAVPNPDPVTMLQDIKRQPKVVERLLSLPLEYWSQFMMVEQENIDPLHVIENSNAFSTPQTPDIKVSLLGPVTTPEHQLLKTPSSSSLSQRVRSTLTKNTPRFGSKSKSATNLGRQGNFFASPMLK

[7] = target: Dual specificity tyrosine-phosphorylation-regulated kinase 1A (Rattus norvegicus, UniProt Q63470); type: biochemical, Homo sapiens
Large T antigen = Large T antigen (Simian virus 40, UniProt P03070); type: functional, Betapolyomavirus macacae;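 note: Confirmatory-stage PubChem screen for compounds that inhibit SV40 T antigen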
Large T antigen, sequence (P03070 whole entry): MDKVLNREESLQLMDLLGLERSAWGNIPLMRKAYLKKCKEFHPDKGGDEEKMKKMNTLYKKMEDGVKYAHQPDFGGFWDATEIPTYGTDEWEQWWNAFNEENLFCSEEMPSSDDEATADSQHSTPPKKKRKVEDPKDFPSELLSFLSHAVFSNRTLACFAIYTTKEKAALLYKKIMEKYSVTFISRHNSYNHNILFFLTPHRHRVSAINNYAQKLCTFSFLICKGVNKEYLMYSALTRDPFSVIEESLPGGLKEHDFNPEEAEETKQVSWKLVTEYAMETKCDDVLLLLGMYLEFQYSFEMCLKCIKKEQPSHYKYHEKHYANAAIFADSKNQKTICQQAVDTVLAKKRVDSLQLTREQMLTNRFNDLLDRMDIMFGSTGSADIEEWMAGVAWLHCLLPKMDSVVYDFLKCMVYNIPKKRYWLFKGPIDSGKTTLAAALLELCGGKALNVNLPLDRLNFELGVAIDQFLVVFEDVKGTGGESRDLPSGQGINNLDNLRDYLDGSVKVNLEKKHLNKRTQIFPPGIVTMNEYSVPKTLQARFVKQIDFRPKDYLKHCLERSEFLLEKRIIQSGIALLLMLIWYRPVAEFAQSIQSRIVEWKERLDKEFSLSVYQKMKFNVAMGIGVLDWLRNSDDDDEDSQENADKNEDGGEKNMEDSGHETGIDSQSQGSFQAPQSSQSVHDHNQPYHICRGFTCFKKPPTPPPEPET

[8] = target: T4, Microphthalmia-associated transcription factor (Homo sapiens, UniProt O75030); test: reducers of TRPM1 reporter luminescence, concentration series – cell-based, SK-MEL-5, cherry-picked, set 3, MITF inhibitor project, dose response (AID 493073); type: functional;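 note: SK-MEL-5 melanoma cells with luciferase driven by the MITF target TRPM1 promoter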
T4 sequence (O75030 whole entry): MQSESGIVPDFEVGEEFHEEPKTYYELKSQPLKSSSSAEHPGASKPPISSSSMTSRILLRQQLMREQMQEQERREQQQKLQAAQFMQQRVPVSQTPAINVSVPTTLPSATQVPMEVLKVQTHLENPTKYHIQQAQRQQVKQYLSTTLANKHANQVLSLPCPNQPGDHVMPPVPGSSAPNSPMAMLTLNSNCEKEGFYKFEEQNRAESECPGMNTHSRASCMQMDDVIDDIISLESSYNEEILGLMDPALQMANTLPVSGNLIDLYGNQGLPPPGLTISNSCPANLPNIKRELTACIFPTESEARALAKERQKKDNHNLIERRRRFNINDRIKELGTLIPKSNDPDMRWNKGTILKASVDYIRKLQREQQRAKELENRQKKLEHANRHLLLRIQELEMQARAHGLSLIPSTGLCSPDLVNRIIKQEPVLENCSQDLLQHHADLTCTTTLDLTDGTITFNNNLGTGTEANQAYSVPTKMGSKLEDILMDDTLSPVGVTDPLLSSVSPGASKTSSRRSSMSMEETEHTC

[9] = non-specific 3'UTR reporter inhibition in Clone20-Shn3RL – cell-based, Renilla luciferase, cherry-picked, counter-screen for Shn3 inhibitor project, dose response (AID 624133); type: functional
[10] = target: Glucose-6-phosphate 1-dehydrogenase (Homo sapiens, UniProt P11413); test: inhibition of Homo sapiens G6PD, dose series – biochemical, fluorescence, selectivity assay for P. falciparum G6PD inhibitor project, dose response (AID 504792); type: functional
Glucose-6-phosphate 1-dehydrogenase, sequence (P11413 whole entry): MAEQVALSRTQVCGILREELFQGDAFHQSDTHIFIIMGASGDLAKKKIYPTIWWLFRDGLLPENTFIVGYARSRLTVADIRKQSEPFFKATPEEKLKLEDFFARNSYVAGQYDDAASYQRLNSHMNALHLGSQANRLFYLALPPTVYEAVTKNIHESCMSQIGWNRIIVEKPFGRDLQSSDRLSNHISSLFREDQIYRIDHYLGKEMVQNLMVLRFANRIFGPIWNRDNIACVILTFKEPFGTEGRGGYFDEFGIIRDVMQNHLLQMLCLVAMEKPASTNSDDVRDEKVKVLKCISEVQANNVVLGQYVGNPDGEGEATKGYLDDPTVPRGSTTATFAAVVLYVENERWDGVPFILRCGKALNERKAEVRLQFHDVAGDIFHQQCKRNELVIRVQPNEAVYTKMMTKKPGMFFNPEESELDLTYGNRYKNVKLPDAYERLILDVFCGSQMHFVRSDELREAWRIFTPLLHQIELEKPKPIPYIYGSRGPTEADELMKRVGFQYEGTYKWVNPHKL

[11] = loss of viability in HepG2 cells – cell-based, CellTiter-Glo, cherry-picked, cytotoxicity control for Shn3 inhibitor project, dose response (AID 624134); type: functional
[12] = reduction of Shn3 3'UTR-driven luciferase in osteoblasts – cell-based, Clone20 osteoblasts, firefly luciferase, cherry-picked, dose response (AID 624132); type: functional;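 note: firefly luciferase luminescence from reporter carrying the Shn3 3'UTR in osteoblasts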
[13] = Luminescence Cell-Based Dose Confirmation HTS to Identify Activators of 5'UTR Stem-Loop Driven Alpha-Synuclein mRNA Translation in H4 Neuroglioblastoma Cells. [Related pubchem assays: 1829 (Project Summary), 1814 (Primary HTS)]; type: functional
[14] = Luminescence Cell-Based Dose Response HTS to Identify Activators of Luciferase Translation or Activity in H4 […] Cells. [Related pubchem assays: 1829 (Project Summary), 1814 (Primary HTS)]; type: functional
H4 = test: Luminescence Cell-Based Dose Response HTS to Identify Activators of 5'UTR Stem-Loop Driven Prion Protein mRNA Translation in H4 Neuroglioblastoma Cells. [Related pubchem assays: 1829 (Project Summary), 1814 (Primary HTS)]; type: functional; settings: Homo sapiens
Streptokinase A = target: T5, Streptokinase A (Streptococcus pyogenes serotype M1, UniProt P10520); test: viability-normalized secreted streptokinase activity reduction – plasminogen activation absorbance, OD405, dose response (AID 1914); type: functional, Streptococcus pyogenes M1 GAS;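 note: secreted streptokinase activity via plasminogen activation per viability signal from cell pellet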
T5 sequence (P10520 whole entry): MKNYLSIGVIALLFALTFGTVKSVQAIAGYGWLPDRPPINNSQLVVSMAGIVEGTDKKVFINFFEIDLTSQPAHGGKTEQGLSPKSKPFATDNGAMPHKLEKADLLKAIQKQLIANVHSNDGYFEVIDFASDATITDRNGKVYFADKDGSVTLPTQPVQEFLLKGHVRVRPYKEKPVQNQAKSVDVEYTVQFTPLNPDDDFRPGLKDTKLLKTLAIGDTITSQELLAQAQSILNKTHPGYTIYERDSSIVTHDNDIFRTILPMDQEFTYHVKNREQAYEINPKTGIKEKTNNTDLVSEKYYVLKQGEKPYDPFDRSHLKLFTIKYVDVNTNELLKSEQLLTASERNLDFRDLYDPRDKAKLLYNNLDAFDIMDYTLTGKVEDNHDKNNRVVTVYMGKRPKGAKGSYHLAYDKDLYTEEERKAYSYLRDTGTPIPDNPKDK

Streptococcus = test: GAS UMAA2166 growth inhibition – luminescence, BacTiterGlo, counter-screen for streptokinase expression inhibitor project, dose response (AID 1915); type: functional, organism-based;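 note: potency for reduction of bacterial viability or growth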
[15] = test system: Streptococcus sp. 'group A'; test: Streptococcus pyogenes SK(-)GAS viability under kanamycin – luminescence, BacTiterGlo, confirmation, counter-screen for streptokinase expression inhibitor project, dose response (AID 1900); type: functional, organism-based

With `Cc1cc(/C=N/NC(=O)C(=O)N2CCCC2)c(C)n1-c1cccc(Br)c1` the IC50 [1] was 13.8 µM (active).
For `CCN1CCN(c2ncnc3scc(-c4ccc(OC)cc4)c23)CC1`, the IC50 [1] was 12.9 µM (active).
In the case of `CC1=NC(C)(C)Cc2ccccc21.O=C(O)c1ccccc1O`, the IC50 [1] is reported as 13.2 µM (active) and the AC50 (Cytochrome P450 2C19) is reported as “inconclusive”.
With `Cc1cc(C)nc(-n2ncc3c2CC(c2cccc(Cl)c2)CC3=O)n1` (configuration not stated) the AC50 [2] was 29.1 µM (active) and the AC50 [3] was 46.8 µM (active).
For `CC1CCCCC1NC(=O)c1c(O)n2ccccc2nc1=O` (configuration not stated), the IC50 [1] was 4.79 µM (active).
For `COc1ccc(C(C(=O)NC2CCCCC2)N(C(=O)Cc2c[nH]c3ccccc23)c2ccc(NC(C)=O)cc2)cc1OC` (configuration not stated), the EC50 [4] was > 92.5 µM (inactive), the AC50 (Cytochrome P450 1A2) was 25.1 µM (inconclusive) and the EC50 [5] was > 92.5 µM (inactive). The EC50 (Mu-type opioid receptor) was > 92.5 µM (inactive) and the AC50 (Cytochrome P450 2C9) was 12.6 µM (inconclusive).
With `Brc1ccc(NC2=Nc3ccccc3CC2)cc1` the EC50 [4] was > 92.5 µM (inactive), the EC50 [5] was > 92.5 µM (inactive) and the EC50 (Mu-type opioid receptor) was 52.1 µM (inactive).
For `CC(/C=C/c1ccc(O)cc1)=N/O`, the IC50 [6] was 10.5 µM (active), the AC50 [7] was 1.54 µM (active) and the IC50 (Large T antigen) was 8.82 µM (active).
With `Cc1ccc(C(=O)N/C(=C\c2ccc(-c3ccccc3[N+](=O)[O-])o2)C(=O)NCCN(C)C)cc1` the AC50 [8] was 4.87 µM (active).
For `COC(=O)c1cc2c(n1S(=O)(=O)c1ccc(C)cc1)C(=O)C(=O)c1[nH]cc(C(=O)OCc3ccccc3)c1-2`, the AC50 [9] was 1.64 µM (active), the EC50 [4] was > 92.4 µM (inactive) and the IC50 [10] was > 80 µM (inactive). For the same compound, the EC50 [5] was > 92.4 µM (inactive), the AC50 [11] was 1.94 µM (active) and the EC50 (Mu-type opioid receptor) was > 92.4 µM (inactive). The AC50 [12] was 1.2 µM (active).
In the case of `Nc1nc2cc([N+](=O)[O-])ccc2[nH]1`, the AC50 [7] is reported as 7.07 µM (active).
With `CC(NC(=O)c1ccc([N+](=O)[O-])o1)C12CC3CC(CC(C3)C1)C2` (configuration not stated) the AC50 [2] was 4.68 µM (active), the EC50 [13] was > 120 µM (not active) and the EC50 [14] was > 120 µM (not active). For the same compound, the EC50 (H4) was 13.8 µM (active) and the AC50 [8] was 15.1 µM (active).
For `O=C(CSc1nnc(-c2ccc3c(c2)OCO3)o1)Nc1ncc(C(F)(F)F)cc1Cl`, the AC50 [2] was 5.84 µM (active), the AC50 [3] was 28.5 µM (active) and the EC50 (Streptokinase A) was > 150 µM (not active). For the same compound, the EC50 (Streptococcus) was 20.4 µM (active) and the EC50 [15] was 1.16 µM (active).
